Measured values published in ChEMBL document CHEMBL4825774, “Sulfonylamide Compounds as CDK2 Inhibitors for Treating Cancer” (ACS Med Chem Lett, 2021).

Each compound was assayed against Cyclin-dependent kinase 2/cyclin E1 (Homo sapiens, UniProt P24941) (assay: Inhibition of human GST-tagged CDK2/FLAG-Cyclin E1 (unknown origin) expressed in baculovirus expression system incubated for 60 mins by HTRF enzyme activity assay).

Structure (SMILES) | IC50 [nM]
CC1(NS(=O)(=O)c2ccc(Nc3ncc4c(n3)N([C@@H]3CCC[C@]3(C)O)C(=O)C43CC3)cc2)CNC1 | ≤ 50
CC1CCCC1N1C(=O)C2(CC2)c2cnc(Nc3ccc(S(=O)(=O)N[C@@H]4CCCN(C)C4)cc3)nc21 (stereo partly specified) | ≤ 50
CN(C)CCNS(=O)(=O)c1ccc(Nc2ncc3c(n2)N(c2cc(F)ccc2Cl)C(=O)C32CC2)cc1 | ≤ 50

Further lines, results first:

IC50 [nM] | Structure (SMILES)
≤ 50 | CNS(=O)(=O)c1ccc(Nc2ncc3c(n2)N([C@@H]2CCC[C@H]2C)C(=O)C32CC2)cc1
≤ 50 | CC[C@@H](N1C(=O)C2(CC2)c2cnc(Nc3ccc(S(=O)(=O)NC)cc3)nc21)C(F)(F)F
≤ 50 | CNS(=O)(=O)c1ccc(Nc2ncc3c(n2)N(c2cc4c(cc2Cl)CNCC4)C(=O)C32CC2)cc1
